Experimental data: patent US5723458A, “Hypolipidaemic compounds” (Glaxo Wellcome Inc., priority 1993, dated 1998)

System: rat distal ileal brush border membrane vesicles (active, sodium-dependent 3H taurocholate uptake)
Experiment: In vitro inhibition of bile acid uptake
Format: biochemical
Settings: 30 seconds at 24° C., versus control active uptake
Method: In vitro inhibition of bile acid uptake
Freshly prepared rat distal ileal brush border membrane vesicles (about […] vesicle protein) were incubated for 30 seconds at 24° C. in an incubation mixture comprising […] ^3 H taurocholate, 100 mM NaCl (or KCl) and 80 mM mannitol in 20 mM Hepes Tris pH 7.4. Each test compound was dissolved in ethanol (or water) and then diluted with incubation mixture to an ethanol concentration of not more than 1% v/v. The incubation was terminated by rapid dilution and filtration and the filter washed with an ice-cold isotonic sodium-free buffer.
The uptake of ^3 H taurocholate was measured by the radioactivity remaining on the filter and converted to pmoles/mg vesicle protein. The active, ie sodium-dependent, uptake was obtained by subtracting the passive uptake measured in 100 mM KCl from the total uptake measured in 100 mM NaCl. The active uptake for each test compound was compared with a control active uptake and the results expressed as % inhibition of bile acid uptake.
Data is given below for % inhibition of bile acid uptake at various concentrations of compounds of the invention.

Row | SMILES | % inhibition of bile acid uptake (3 μM test compound) [%] | % inhibition of bile acid uptake (10 μM test compound) [%] | % inhibition of bile acid uptake (0.3 μM test compound) [%] | % inhibition of bile acid uptake (1 μM test compound) [%]
1 | CC[C@@H](O)C[C@@]1(CC)CS(=O)(=O)c2ccccc2[C@H](c2ccccc2)N1 (racemic) [Example 1, (+-)-trans-3-ethyl-2,3,4,5-tetrahydro-3-((2R)-2hydroxybutyl)-5-phenyl-1,4-benzothiazepine 1,1-dioxide] | 36 | 69 |  | 
2 | CC[C@@H](O)C[C@@]1(CC)CS(=O)(=O)c2cc(OC)ccc2[C@H](c2ccccc2)N1 (racemic) [Example 2] | 60 | 83 | 22 | 44
3 | CC[C@]1(C[C@H](O)CC(F)(F)F)CS(=O)(=O)c2ccccc2[C@H](c2ccccc2)N1 (racemic) [Example 11, (+-)-trans-1-(3-ethyl-2,3,4,5-tetrahydro-5-phenyl-1,4-benzothiazepin-3-yl)-4,4,4-trifluoro-(2S)-2-butanol-S,S-dioxide] | 63 | 85 | 13 | 31
4 | CC[C@]1(C[C@H](O)CC(F)(F)F)CS(=O)(=O)c2ccc(OC)cc2[C@H](c2ccccc2)N1 (racemic) [Example 12, (+-)-trans-1-(3-ethyl-2,3,4,5-tetrahydro-7-methoxy-5-phenyl-1,4-benzothiazepin-3-yl)-4,4,4-trifluoro-(2S)-2-butanol-S,S-dioxide] | 86 | 95 | 47 | 72
5 | CCC1NC(c2ccc(O)cc2)c2ccccc2S(=O)(=O)C1C[C@@H](O)CC (mixture of isomers) [Example 24, (+-)-Trans-3-Ethyl-2,3,4,5-tetrahydro-2-(2(S)-2-hydroxybutyl)-5-(4-hydroxyphenyl)-1,4-benzothiazepine 1,1-dioxide] |  | 23 |  | 
